{"source": "patent US20230263817A1", "about": "“HIGH DOSE NICOTINAMIDE ADENINE DINUCLEOTIDE (NAD) PRECURSOR REGIMENS FOR REDUCTION OF INFLAMMATION IN HUMAN PATIENTS WITH PREEXISTING INFLAMMATION” (University of Washington, priority 2021, published 2023)", "key": {"[1]": {"test_system": "NLRP3 and proinflammatory cytokine gene expressions in HF PBMCs", "assay": "RT-qPCR of NLRP3 and cytokine mRNA in Stage D HF PBMCs treated in vitro with NR", "type": "cell-based, human", "conditions": "4-hour 1 mM NR vs vehicle", "procedure": "PBMC and Monocyte Culture. Freshly isolated PBMCs or Monocytes from healthy or HF subjects were resuspended with RPMI medium plus 10% heat inactivated FBS. PBMCs (10^6 cells/well) were seeded in Seahorse 24-well plates and incubated at 37° C. in CO2 incubator with various proinflammatory triggers (Vehicle, MitoDAMP, LPS) and compounds (NR, MCC 950, MitoTempo, or LMT-28). After 4 hours incubation, the plate was centrifuged at 40 g for 10 minutes at room temperature without application of the brake to help cells attach to the bottom of the plate. The cells were washed twice and then brought up to 500 μL using Seahorse base medium (Agilent Technologies, supplemented with 1 mM pyruvate, 2 mM glutamine, and 10 mM glucose, pH 7.4).\nIL6 ELISA. Isolated PBMCs (4×10^6 cells per sample) from healthy or HF participants were resuspended in RPMI medium containing 10% heat-inactivated FBS and treated with various proinflammatory triggers (Vehicle, MitoDAMP, LPS) and compounds (NR, MCC 950, MitoTempo, or LMT-28) to final PBMC concentrations of 10×10^6 cells per mL. See below for detailed descriptions of the reagents. […]\nRNA Isolation and Quantitative PCR analysis. […] Real-time PCR was performed in the Corbett rotor gene 6000 real-time PCR machine using iQ™ SYBR® Green Supermix (Bio-rad) and expression levels of the indicated genes were calculated using the ΔΔCt method."}, "[2]": {"assay": "Randomized placebo-controlled 12-week trial of NR in clinically-stable HFrEF: safety and tolerability", "type": "in vivo, human", "source_text": "The remaining 30 participants met all the prespecified inclusion criteria of: 1) Systolic HF (LVEF<40%, as determined by transthoracic echocardiogram) of non-ischemic or ischemic etiologies, 2) clinically stable (no cardiac procedures or hospitalizations for cardiac causes, including HF, ischemia or arrhythmia) within the prior 3 months, 3) ability to perform Study procedures (including study visits, blood draws and 6MWT), 4) willingness/ability to provide informed consent. None had any of the following exclusion criteria: 1) Heart failure with preserved ejection fraction (LVEF>40%), 2) HF etiologies other than non-ischemic or ischemic, 3) cardiac procedures, including, cardiac surgery, PCI, or cardiac device implantation, within the previous 3 months, 4) hospitalizations for cardiovascular causes, including HF, chest pain, stroke/TIA or arrhythmias within the prior 3 months, 5) inability to perform Study visits or procedures (e.g., physical inability to perform 6MWT), 6) unwillingness or inability to provide informed consent, 7) Alanine transaminase (ALT)>×3 upper limit of normal, hepatic insufficiency or active liver disease, 8) recent history of acute gout, 9) chronic renal insufficiency with serum creatinine ≥2.5 mg/dl, 10) pregnant or likely to become pregnant, 11) significant co-morbidity likely to cause death within 6 months, 12) significant history of active substance abuse within the previous 5 years, 13) current participation in a clinical trial of a study drug or intervention, and 14) prior intolerance to NR precursors, including niacin or nicotinamide. Follow-up was completed on all 30 participants. Study medication was discontinued in one participant due to gastrointestinal intolerance, but they completed all follow-up visits and procedures. The final participant refused to complete any study visits or procedures after the Week 0 (Randomization Visit), but their vital status was confirmed at the end of the Study. No participants were excluded from analysis, which followed the principal of intention-to-treat. The standardized method for characterizing adverse events employed in the UW Clinical Trials Unit is the Common Terminology Criteria for Adverse Events v3.0 (CTCAE). There were 18 protocol deviations.\nStudy Design: The overall Study Design is depicted graphically in FIG. 15. Participant clinic visits, medication dispensing and data collection were performed on the Translational Research Unit (TRU) at the University of Washington (UW). […] History included assessment with the Minnesota Living with Heart Failure Questionnaire (MLHFQ), under license from the University of Minnesota (Minneapolis, Minn.).\nParticipants were randomized to NR or placebo at a 2:1 allocation ratio by the University of Washington Investigational Drug Service, which assigned Study IDs and dispensed study medications.\nAt Week 0 (Randomization), participants underwent history, repeat 6MWD assessment and baseline transthoracic echocardiogram (FIG. 15). NR or matching placebo were started at the initial dose of 250 mg orally twice daily, then up-titrated by 250 mg twice daily each week to a final dose of 1000 mg twice daily by Week 3. Participants were continued on the 1000 mg twice daily dose until the final clinic visit on Week 12. Blood draws for study labs, including levels of NR and NAD were obtained at Weeks 0, 2, 4 and 12. Medications were dispensed at Weeks 0, 2, 4 and 8, with pill counts performed at Weeks 2, 4, 8 and 12. A telephone visit was performed at Week 6. The final echocardiogram and PBMC mitochondrial respiration assays were performed at Week 12. Study labs were performed by the UW Research Testing Service, except for NR and NAD+ assays, which were performed by the Pharmacokinetics Laboratory, Department of Pharmaceutics, UW School of Pharmacy. Procedures for blood collection and processing, as well as NR and NAD+ assay procedures, have been described previously (Airhart S E, et al., PLoS One. 2017, 12:e0186459)."}}, "data": [{"molecule": "NC(=O)c1ccc[n+]([C@@H]2O[C@H](CO)[C@@H](O)[C@H]2O)c1", "note": "[NR, nicotinamide riboside]", "values": [{"measurement": "reductions of NLRP3 and proinflammatory cytokine gene expressions", "setting": "[1]", "result": "minimal"}, {"measurement": "total AEs reported on-trial", "setting": "[2]; 20-participant NR group", "result": 63}, {"measurement": "treatment-emergent laboratory abnormalities, NR vs placebo", "setting": "[2]; HFrEF, 12 weeks", "result": "no significant differences"}, {"measurement": "treatment-emergent adverse events (AEs), NR vs placebo", "setting": "[2]; HFrEF, up to 1000 mg twice daily, 12 weeks", "result": "no between-group differences"}, {"measurement": "safety and tolerability", "setting": "[2]; dose up to 1000 mg twice daily, total treatment duration of 12 weeks", "result": "well-tolerated"}, {"measurement": "out-of-range lab values", "setting": "[2]; patients randomized to NR", "result": "creatinine greater than 1.5× but less than 3× baseline on 2 occasions in 1 patient"}, {"measurement": "percentages of dispensed capsules taken (range)", "setting": "[2]; returned pill counts, NR group", "result": "97 (91-100) %"}]}]}
